This experiment has as its system Rheb^CA neurons. Nature of the experiment: Whole cell patch clamp recording in acute slices, Rheb^CA (FCM) neurons. In kind it is cell-based, mice. On the procedure: Each DNA plasmid was diluted in sterile PBS (pH 7.4) to a final concentration of 1.5-3 μg/μl (specific concentrations below). About 1 μl of DNA solution containing 0.1% fast green was injected into the lateral ventricle of E15.5±0.5 fetuses with a glass pipette. After injection, PBS soaked tweezer-type electrodes (model 520, BTX) were positioned on heads of the fetuses across the uterine wall and 6 square-pulses (42V, 50 ms duration, 950 ms intervals) were applied using a pulse generator (ECM830, BTX), Mice were prescreened for successful electroporation on a fluorescence enabled stereo microscope (SZX16, Olympus) prior to recruitment for EEG monitoring. To generate epilepsy-associated FCM, a DNA solution composed of pCAG-RhebS16H (Rheb^CA, 2 μg/μl) and pCAG-tdTomato (1 μg/μl) was injected in half of all fetuses while pCAG-GFP (3 μg/μl) containing solution was injected in the remaining littermates as controls. To silence FCM neurons, pCAG-Kir2.1-T2A-tdTomato (2 μg/μl)+pCAG-Rheb^CA (2 μg/μl) was injected in half of the fetuses while the remaining half received pCAG-Rheb^CA (2 μg/μl)+pCAG-GFP (2 μg/μl) as controls.
1-5-week-old mice were used for acute slices. Tissue was dissected and sliced in ice cold artificial cerebral spinal fluid (aCSF)oxygenated with 95% O2/5% CO2. The aCSF contained (all in mM): 124 NaCl, 3 KCl, 1.25 NaH2PO4, 1 MgSO4, 26 NaHCO3, 10 Dextrose, 2 CaCl2, 0.4 ascorbate, 4 Na-Lactate, 2 Na-Pyruvate (290±5 mOsm/kg, pH 7.2). Coronal sections (350 μm) were prepared using a vibratome (Vibratome 1000). Sections were incubated in aCSF at 32° C. for 45 minutes before returning to room temperature (25° C.) where they were kept for 8 to 10 hours during experimentation. Fluorescent neurons in the mPFC were visualized using epifluorescence on an Olympus BX51WI microscope with a 40× water immersion objective (Olympus, LUMPlanFL/IR). Whole-cell recordings were performed at 28° C. using pulled glass pipettes ([…]) filled with internal solution (in mM: 110 K-gluconate, 4 KCL, 10 HEPES, 10 di-tris-phosphocreatine, 4 Mg-ATP, 0.3 Na-GTP). Recordings were acquired with an amplifier (Axopatch 200B, Molecular Devices), The resting membrane potential was recorded within the first 10 seconds after achieving whole, cell configuration in current-clamp mode, while the cell is at rest without any holding current. The membrane conductance was calculated using the average membrane potential change from ten hyperpolarizing current injections of −500 pA in current-clamp mode when the cell is at rest. The action potential half width was calculated at half of the peak amplitude of a single action potential induced by current injection. The action potential firing threshold was defined as the membrane potential at which the first derivative of an action potential in current-clamp mode achieves 10% of its peak velocity (dV/dt). The action potential input-output curve was generated by injecting positive current in current-clamp mode from 0 to 2 nA at 100 pA increments for 500 msec.

[1] abbreviates: Rheb^CA neurons with zatebradine.

With `C=C[C@@]1(C)CC(=O)[C@]2(O)[C@@]3(C)[C@@H](O)CCC(C)(C)[C@@H]3[C@H](O)[C@H](OC(C)=O)[C@@]2(C)O1` [forskolin], the “neurons generating repetitive action potentials” value (Rheb^CA neurons, forskolin bath-application) was 4/9.
As for `COc1ccc(CCN(C)CCCN2CCc3cc(OC)c(OC)cc3CC2=O)cc1OC` [zatebradine], for the setting “500 ms-long voltage step, Rheb^CA vs Rheb^CA+zatebradine”, the “h current amplitude difference (ΔI)” value is recorded as “significantly reduced”. Further, under setting [1], the “residual inward current at −90 mV” value is reported as “no residual inward current” and the “resting membrane potential (RMP)” value is on record as “shifted RMP of cells to hyperpolarized values similar to those of control neurons”. Moreover, the “hyperpolarization-induced voltage sag response” value (Rheb^CA neurons, −500 pA current step, zatebradine 40 μM) was “eliminated the sag response”. For the same compound, the “HCN currents in Rheb^CA neurons before seizure onset” value (slices from P8-P12 mice) is “zatebradine-sensitive”. Moreover, where the note is “voltage-clamp steps from −40 to −130 mV, in the presence of zatebradine, not fully blocked”, the hyperpolarization-activated inward currents entry is “significantly reduced”.

These data come from patent US12274756B2, “Methods of treating and diagnosing epilepsy” (YALE UNIVERSITY, priority 2019, dated 2025).
